Broadly, the Tmax is the time at which the peak concentration occurs.

The test system of data set [1] is APP/PS1 transgenic mice. Nature of the data set: Cognitive tests in APP/PS1 transgenic mice. The format is in vivo, mouse. The note with it: 4-week repeated dosing test.
Data set [2] has as its system APP/PS1 transgenic mice. Nature of the data set: Tonic GABA current, neuronal firing and DAO compensation in APP/PS1 mice. The format is in vivo, mouse. The note with it: 4-week repeated dosing test.
The conditions of data set [3]: similar drugs; ref ZELAPAR®, XADAGO®; cited from earlier work.
Data set [4] has as its system primary cultured spinal cord astrocytes. Nature of the data set: BDNF expression in cultured astrocytes (qPCR, Western blot). The format is cell-based, mouse. For orientation: Real-time PCR tracks product formation cycle by cycle.

On to `C#CCN(C)[C@H](C)Cc1ccccc1` [selegiline, reference compound], for which the cognitive function result with APP/PS1 transgenic mice [1] is listed as “cognitive function decline”. The neuronal firing result with APP/PS1 transgenic mice [2] (2nd week) is “started to decrease”; with APP/PS1 transgenic mice [2] (4th week), “completely lost”. In addition, the Tmax in data set [3] is 45 min.
For the molecule `NCCCC(=O)O` [GABA, γ-aminobutyric acid], the “mRNA expression level of BDNF” value in data set [4] (GABA 100 μM, 24 h) is recorded as “significantly downregulated”. Further, the “proBDNF expression (Western blotting)” value in data set [4] (GABA-treated) was “reduction”.
